The values below are quoted from earlier work in patent US8840883B2, “Metallo-protein and tocotrienol (MP-T3) compositions with non-protein-type metal chelator and uses thereof” (Naidu LP, priority 2007, dated 2014).

For this data set the following is noted: as low as 2% oxygen.

SMILES strings stand for the structures.

Consider `CC(C)=CCC/C(C)=C/CC/C(C)=C/CC[C@]1(C)CCc2cc(O)c(C)c(C)c2O1` [gamma-T3], for which the degradation is reported as 29%. On to `Cc1c(O)cc2c(c1C)O[C@](C)(CCC[C@H](C)CCC[C@H](C)CCCC(C)C)CC2` [gamma-tocopherol], for which the degradation was 20%.
